These are literature values, as cited in patent publication US6277963A, “Antibodies directed toward extracellular signal-related kinases” (Regeneron Pharmaceuticals, Inc., priority 1997, dated 2001).

The data set concerns the target MAP2 kinase (partially purified enzyme) (Mus musculus, UniProt P63085).

MAP2 kinase (partially purified enzyme), sequence (P63085 whole entry): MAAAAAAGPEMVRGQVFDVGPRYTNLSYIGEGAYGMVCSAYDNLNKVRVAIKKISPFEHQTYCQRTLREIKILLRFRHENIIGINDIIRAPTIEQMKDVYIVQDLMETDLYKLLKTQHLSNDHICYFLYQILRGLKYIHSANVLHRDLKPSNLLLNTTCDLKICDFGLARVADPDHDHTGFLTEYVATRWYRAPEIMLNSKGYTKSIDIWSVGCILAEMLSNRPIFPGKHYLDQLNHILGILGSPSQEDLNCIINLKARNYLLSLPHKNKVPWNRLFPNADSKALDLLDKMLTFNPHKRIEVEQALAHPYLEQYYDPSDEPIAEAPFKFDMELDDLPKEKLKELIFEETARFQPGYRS

As for `Nc1ncnc2c1ncn2[C@@H]1O[C@H](COP(=O)(O)OP(=O)(O)OP(=O)(O)O)[C@@H](O)[C@H]1O` [ATP], the Km (read-out: Km for ATP) was 7 µM.
Regarding `Nc1nc2c(ncn2[C@@H]2O[C@H](COP(=O)(O)OP(=O)(O)OP(=O)(O)O)[C@@H](O)[C@H]2O)c(=O)[nH]1` [GTP], the “utilization of GTP” value is recorded as “did not appear to utilize GTP”.
